We go through 26 molecules from US20260317320A1, “C5AR1 ANTAGONISTS AND USES THEREOF” (Vanqua Bio, Inc., priority 2022, published 2026).

The first assay addresses T1, complement C5a receptor 1 (C5aR1) (Homo sapiens, UniProt P21730).
T1 construct: β-galactosidase fragment (PathHunter enzyme complementation); host or cells: CHO-K1 (PathHunter CHO-K1 C5aR1 β-arrestin cell line)
T1 sequence (P21730 1-350): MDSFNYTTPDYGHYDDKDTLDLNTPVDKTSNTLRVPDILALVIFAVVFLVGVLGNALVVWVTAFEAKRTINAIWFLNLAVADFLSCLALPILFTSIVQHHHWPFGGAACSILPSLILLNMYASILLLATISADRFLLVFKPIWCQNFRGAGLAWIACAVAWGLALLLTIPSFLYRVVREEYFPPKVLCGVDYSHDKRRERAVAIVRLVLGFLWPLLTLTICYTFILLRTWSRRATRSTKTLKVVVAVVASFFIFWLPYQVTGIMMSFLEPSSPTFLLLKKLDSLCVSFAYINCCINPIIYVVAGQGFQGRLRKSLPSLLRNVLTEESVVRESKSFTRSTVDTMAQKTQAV
As to the kind of experiment: β-arrestin recruitment via C5aR1 activation in live CHO-K1 cells (PathHunter), antagonist mode. The assay is classed as cell-based.
Details: not given
Here is the method: Exemplary compounds were evaluated for classical GPCR β-arrestin recruitment via complement C5a receptor 1 (C5aR1) activation in live CHO-K1 cells. This cell line expresses two fragments of the […] protein coupled to β-arrestin and C5aR1. Complementation of the two fragments allows for the assessment of both C5aR1 agonism and antagonism. Recombinant hC5a (EC90) was used as the competing natural agonist against disclosed compounds (more information on the expanded protocol and cell line can be found on the manufacturer's website: PathHunter® CHO-K1 C5aR1 β-arrestin cell line, DiscoverX, Catalog No. 93-0557C2). […] IC50 ranges: A: IC50≤500 nM; B: 500 nM<IC50≤5 uM; C: 5 uM<IC50≤100 uM; D: IC50>100 uM.
`Cc1ccccc1N1CCC(c2cc3nccnc3n(Cc3nccnc3C)c2=O)CC1` [compound 109, 5-((3-Methylpyrazin-2-yl)methyl)-7-(1-(o-tolyl)piperidin-4-yl)pyrido[2,3-b]pyrazin-6(5H)-one] came in with a concentration for half-maximal inhibition (IC50) of 0.5 to 5 µM. With `Cc1cnc2cc(C3CCN(c4c(C)cccc4F)CC3)c(=O)n(Cc3cccnc3OC(F)(F)F)c2n1` [compound 100, 7-(1-(2-Fluoro-6-methylphenyl)piperidin-4-yl)-3-methyl-5-((2-(trifluoromethoxy)pyridin-3-yl)methyl)pyrido[2,3-b]pyrazin-6(5H)-one], the IC50 is under 0.5 µM.

The assay is the same for the next values; noted with them: antagonist mode; recombinant hC5a (EC90) as competing natural agonist; live CHO-K1 cells; read-out: [Antagonist] B-arrestin2 recruitment: Average IC50.
On to `Cc1cnc2cc(N3CCN(c4c(C)cccc4F)CC3)c(=O)n(Cc3nccnc3C(F)(F)F)c2n1` [compound 92, 7-(4-(2-Fluoro-6-methylphenyl)piperazin-1-yl)-3-methyl-5-((3-(trifluoromethyl)pyrazin-2-yl)methyl)pyrido[2,3-b]pyrazin-6(5H)-one], for which the half-maximal inhibitory concentration (IC50) is under 0.5 µM. The same measure, in the same setting: the figure for `Cc1cccc(F)c1N1CCC(c2cc3nccnc3n(Cc3ccccc3C(F)(F)F)c2=O)CC1` [compound 1, 7-(1-(2-Fluoro-6-methylphenyl)piperidin-4-yl)-5-(2-(trifluoromethyl)benzyl)pyrido[2,3-b]pyrazin-6(5H)-one] is under 0.5 µM; for `COc1ccnc(F)c1N1CCC(c2cc3ncc(C)nc3n(Cc3nccnc3C(F)(F)F)c2=O)CC1` [compound 80, 7-(1-(2-Fluoro-4-methoxypyridin-3-yl)piperidin-4-yl)-3-methyl-5-((3-(trifluoromethyl)pyrazin-2-yl)methyl)pyrido[2,3-b]pyrazin-6(5H)-one] it is 0.5 to 5 µM; for `Cc1cnc2cc(N3CCC(c4c(C)cccc4F)CC3)c(=O)n(Cc3ncccc3C(F)(F)F)c2n1` [compound 101, 7-(4-(2-Fluoro-6-methylphenyl)piperidin-1-yl)-3-methyl-5-((3-(trifluoromethyl)pyridin-2-yl)methyl)pyrido[2,3-b]pyrazin-6(5H)-one] it is 0.5 to 5 µM. For `Cc1ncc2cc(N3CCN(c4c(C)cccc4F)CC3)c(=O)n(Cc3ncccc3C(F)(F)F)c2n1` [compound 119, 6-(4-(2-Fluoro-6-methylphenyl)piperazin-1-yl)-2-methyl-8-((3-(trifluoromethyl)pyridin-2-yl)methyl)pyrido[2,3-d]pyrimidin-7(8H)-one], the IC50 lay within 0.5 to 5 µM. As for `Cc1cccc(F)c1N1CCC(c2cc3ncncc3n(Cc3ncccc3C(F)(F)F)c2=O)CC1` [compound 84, 7-(1-(2-Fluoro-6-methylphenyl)piperidin-4-yl)-5-((3-(trifluoromethyl)pyridin-2-yl)methyl)pyrido[3,2-d]pyrimidin-6(5H)-one], the IC50 is over 100 µM.

As for `Cc1cnc2cc([C@H]3CC[C@@H](c4c(C)cccc4F)CC3)c(=O)n(Cc3ncccc3C(F)(F)F)c2n1` [121b, 7-(cis-4-(2-Fluoro-6-methylphenyl)cyclohexyl)-3-methyl-5-((3-(trifluoromethyl)pyridin-2-yl)methyl)pyrido[2,3-b]pyrazin-6(5H)-one], the IC50 is 0.5 to 5 µM. In the case of `Cc1cccc(F)c1N1CCC(c2cc3nccnc3n(Cc3ncccc3OC(F)F)c2=O)CC1` [compound 98, 5-((3-(Difluoromethoxy)pyridin-2-yl)methyl)-7-(1-(2-fluoro-6-methylphenyl)piperidin-4-yl)pyrido[2,3-b]pyrazin-6(5H)-one], the IC50 is under 0.5 µM.

As for `Cc1ncc2cc(N3CCN(c4c(C)cccc4F)CC3)c(=O)n(Cc3ncccc3OC(F)(F)F)c2n1` [compound 110, 6-(4-(2-Fluoro-6-methylphenyl)piperazin-1-yl)-2-methyl-8-((3-(trifluoromethoxy)pyridin-2-yl)methyl)pyrido[2,3-d]pyrimidin-7(8H)-one], the concentration for half-maximal inhibition (IC50) is under 0.5 µM.

Turning to `COc1ncnc2cc(C3CCN(c4c(C)cccc4F)CC3)c(=O)n(Cc3nccnc3C(F)(F)F)c12` [compound 93, 7-(1-(2-Fluoro-6-methylphenyl)piperidin-4-yl)-4-methoxy-5-((3-(trifluoromethyl)pyrazin-2-yl)methyl)pyrido[3,2-d]pyrimidin-6(5H)-one], the 50% inhibitory concentration (IC50) is over 100 µM. Consider `Cc1cnc2cc(C3CCN(c4ccnnc4C)CC3)c(=O)n(Cc3ncccc3C(F)(F)F)c2n1` [compound 113, 3-Methyl-7-(1-(3-methylpyridazin-4-yl)piperidin-4-yl)-5-((3-(trifluoromethyl)pyridin-2-yl)methyl)pyrido[2,3-b]pyrazin-6(5H)-one], for which the half-maximal inhibitory concentration (IC50) was over 100 µM. For the molecule `Cc1cnc2cc(C3CCN(c4c(C)cccc4F)CC3)c(=O)n(Cc3ncccc3C(F)(F)F)c2c1` [compound 90, 3-(1-(2-Fluoro-6-methylphenyl)piperidin-4-yl)-7-methyl-1-((3-(trifluoromethyl)pyridin-2-yl)methyl)-1,5-naphthyridin-2(1H)-one], the concentration for half-maximal inhibition (IC50) lay in the range of 5 to 100 µM. As to `Cc1ncc2cc(C3CCN(c4c(C)cccc4F)CC3)c(=O)n(Cc3ncccc3OC(F)F)c2n1` [compound 105, 8-((3-(Difluoromethoxy)pyridin-2-yl)methyl)-6-(1-(2-fluoro-6-methylphenyl)piperidin-4-yl)-2-methylpyrido[2,3-d]pyrimidin-7(8H)-one], the IC50 was under 0.5 µM. Turning to `COc1cnc2cc(C3CCN(c4c(C)cccc4F)CC3)c(=O)n(Cc3nccnc3C(F)(F)F)c2n1` [compound 76, 7-(1-(2-Fluoro-6-methylphenyl)piperidin-4-yl)-3-methoxy-5-((3-(trifluoromethyl)pyrazin-2-yl)methyl)pyrido[2,3-b]pyrazin-6(5H)-one], the concentration for half-maximal inhibition (IC50) fell in the range of 0.5 to 5 µM. As for `Cc1cccc(F)c1C1CCN(c2cc3nccnc3n(Cc3ncccc3C(F)(F)F)c2=O)CC1` [compound 91, 7-(4-(2-fluoro-6-methylphenyl)piperidin-1-yl)-5-((3-(trifluoromethyl)pyridin-2-yl)methyl) pyrido[2,3-b]pyrazin-6(5H)-one], the IC50 is 0.5 to 5 µM. As to `Cc1nccnc1Cn1c(=O)c(C2CCN(c3ccccc3OC(F)(F)F)CC2)cc2nccnc21` [compound 108, 5-((3-Methylpyrazin-2-yl)methyl)-7-(1-(2-(trifluoromethoxy)phenyl)piperidin-4-yl)pyrido[2,3-b]pyrazin-6(5H)-one], the 50% inhibitory concentration (IC50) fell in the range of 0.5 to 5 µM. `Cc1cnc2cc(N3CCN(c4c(C)cccc4F)CC3)c(=O)n(Cc3nccnc3C)c2n1` [compound 104, 7-(4-(2-Fluoro-6-methylphenyl)piperazin-1-yl)-3-methyl-5-((3-methylpyrazin-2-yl)methyl)pyrido[2,3-b]pyrazin-6(5H)-one]: the IC50 lay within 0.5 to 5 µM. In the case of `Cc1ncc2cc(C3CCN(c4c(C)cccc4F)CC3)c(=O)n(Cc3ncccc3OC(F)(F)F)c2n1` [compound 102, 6-(1-(2-Fluoro-6-methylphenyl)piperidin-4-yl)-2-methyl-8-((3-(trifluoromethoxy)pyridin-2-yl)methyl)pyrido[2,3-d]pyrimidin-7(8H)-one], the IC50 is under 0.5 µM. With `Cc1cnc2c(C)c(C3CCN(c4c(C)cccc4F)CC3)c(=O)n(Cc3nccnc3C)c2n1` [compound 103, 7-(1-(2-Fluoro-6-methylphenyl)piperidin-4-yl)-3,8-dimethyl-5-((3-methylpyrazin-2-yl)methyl)pyrido[2,3-b]pyrazin-6(5H)-one], the 50% inhibitory concentration (IC50) fell in the range of 0.5 to 5 µM. `Cc1cccc(F)c1N1CCN(c2c(C)c3nccnc3n(Cc3nccnc3C(F)(F)F)c2=O)CC1` [compound 97, 7-(4-(2-Fluoro-6-methylphenyl)piperazin-1-yl)-8-methyl-5-((3-(trifluoromethyl)pyrazin-2-yl)methyl)pyrido[2,3-b]pyrazin-6(5H)-one]: the IC50 lay within 0.5 to 5 µM.

For the molecule `Cc1cccc(F)c1N1CCC(c2cc3ncncc3n(Cc3nccnc3C(F)(F)F)c2=O)CC1` [compound 82, 7-(1-(2-Fluoro-6-methylphenyl)piperidin-4-yl)-5-((3-(trifluoromethyl)pyrazin-2-yl)methyl)pyrido[3,2-d]pyrimidin-6(5H)-one], the IC50 is over 100 µM. For `Cc1nccnc1Cn1c(=O)c(C2CCN(c3ccccc3OC(F)F)CC2)cc2nccnc21` [compound 111, 7-(1-(2-(Difluoromethoxy)phenyl)piperidin-4-yl)-5-((3-methylpyrazin-2-yl)methyl)pyrido[2,3-b]pyrazin-6(5H)-one], the IC50 lay within 5 to 100 µM. Take `Cc1ncc2cc(C3CCN(c4c(C)cccc4F)CC3)c(=O)n(Cc3nccnc3C)c2n1` [compound 107, 6-(1-(2-Fluoro-6-methylphenyl)piperidin-4-yl)-2-methyl-8-((3-methylpyrazin-2-yl)methyl)pyrido[2,3-d]pyrimidin-7(8H)-one]: the IC50 lay within 0.5 to 5 µM. For `Cc1cnc2cc([C@H]3CC[C@@H](c4c(C)cccc4F)CC3)c(=O)n(Cc3nccnc3C(F)(F)F)c2n1` [99a, 7-(cis-4-(2-Fluoro-6-methylphenyl)cyclohexyl)-3-methyl-5-((3-(trifluoromethyl)pyrazin-2-yl)methyl)pyrido[2,3-b]pyrazin-6(5H)-one], the 50% inhibitory concentration (IC50) lay within 0.5 to 5 µM.
